Test results reported in patent US11311503B1, “Sterile aqueous choline salt compositions” (Protara Therapeutics, Inc., priority 2021, dated 2022).
Read-outs that look alike come from different tables or passages of the source.

Assays:
[1] = three months post production
[2] = three months post production; remark: listed apart in the source
[3] = Acid 1: 1 N HCl, about 72 hours
[4] = Acid 2: 0.1 N HCl, about 72 hours
[5] = Base 1: 1 N NaOH, about 72 hours
[6] = Base 2: 0.1 N NaOH, about 72 hours
[7] = Heat (dry): 80°, about 72 hours
[8] = Heat (wet): 80°, about 72 hours
[9] = Oxidation: 5% H2O2, about 24 hours
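Throughout, for % Impurities RRT 1.42/1.44: Stress-treated samples analysed together with a control by the test method, run time lengthened to catch possible late-eluting degradation peaks.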
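Throughout, for % Total Impurities: Stress-treated samples analysed together with a control by the test method, run time lengthened to catch possible late-eluting degradation peaks.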
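Throughout, for Assay % Relative to control: Stress-treated samples analysed together with a control by the test method, run time lengthened to catch possible late-eluting degradation peaks.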
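Throughout, for Mass Balance % Relative to Control: Stress-treated samples analysed together with a control by the test method, run time lengthened to catch possible late-eluting degradation peaks.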

Compound: C[N+](C)(C)CCO.[Cl-] [Choline chloride]
- pH (1 in 10 solution) [1]: 5.9
- % Impurities RRT 1.42/1.44 [3]: 0.14%
- % Total Impurities [3]: 0.14%
- Assay % Relative to control [3]: 100.4%
- Mass Balance % Relative to Control [3]: 100.5%
- Mass Balance Assay + Impurities [3]: 99.24
- Assay % LC (Acid 1: 1 N HCl, about 72 hours, ambient): 99.1 % LC
- Assay % Relative to control [4]: 100.2%
- Mass Balance % Relative to Control [4]: 100.2%
- Mass Balance Assay + Impurities [4]: 98.9
- Assay % LC (Acid 2: 0.1 N HCl, about 72 hours, ambient): 98.9 % LC
- % Impurities RRT 1.42/1.44 [5]: 0.14%
- % Total Impurities [5]: 0.14%
- Assay % Relative to control [5]: 100.6%
- Mass Balance % Relative to Control [5]: 100.7%
- Mass Balance Assay + Impurities [5]: 99.44
- Assay % LC (Base 1: 1 N NaOH, about 72 hours, ambient): 99.3 % LC
- Assay % Relative to control [6]: 102.1%
- Mass Balance % Relative to Control [6]: 102.1%
- Mass Balance Assay + Impurities [6]: 100.8
- Assay % LC (Base 2: 0.1 N NaOH, about 72 hours, ambient): 100.8 % LC
- Assay % LC (Control: No treatment): 98.7 % LC
- Mass Balance Assay + Impurities (Control: No treatment): 98.7
- Assay % LC (Heat (dry): 80° for about 72 hours): 99.2 % LC
- Assay % Relative to control [7]: 100.5%
- Mass Balance % Relative to Control [7]: 100.5%
- Mass Balance Assay + Impurities [7]: 99.2
- Assay % Relative to control [8]: 100.7%
- Mass Balance % Relative to Control [8]: 100.7%
- Mass Balance Assay + Impurities [8]: 99.4
- Assay % LC (Heat (wet): in the presence of water, 80° for about 72 hours): 99.4 % LC
- Assay % LC (Light (dry): about 7.2 kilolux Visible and 1 W/m^2 UV, about 120 hours): 99.7 % LC
- Assay % Relative to control (Light (dry): about 120 hours): 101.0%
- Mass Balance % Relative to Control (Light (dry): about 120 hours): 101.0%
- Mass Balance Assay + Impurities (Light (dry): about 120 hours): 99.7
- Assay % Relative to control (Light (wet): about 120 hours): 100.2%
- Mass Balance % Relative to Control (Light (wet): about 120 hours): 100.2%
- Mass Balance Assay + Impurities (Light (wet): about 120 hours): 98.9
- Assay % LC (Light (wet): in the presence of water, about 7.2 kilolux Visible and 1 W/m^2 UV, about 120 hours): 98.9 % LC
- % Total Impurities [9]: 0.55%
- Assay % Relative to control [9]: 100.7%
- Mass Balance % Relative to Control [9]: 101.3%
- Mass Balance Assay + Impurities [9]: 99.95
- Assay % LC (Oxidation: 5% H2O2, about 24 hours, ambient): 99.4 % LC
- stability / degradation at all stressed conditions (acid, base, oxidation, light, heat, maximum stress conditions): no significant degradation
- Bacterial Endotoxins [2]: <0.1 EU/mg
